Consider four compounds from patent US6777434B2, “Thiazolidine-4-one derivative, method for preparing the same, and pharmaceutical composition containing the same” (CJ Corp., priority 2002, dated 2004).

Test [1] has as its target T1, COX-1 (Homo sapiens, UniProt P23219).
T1 construct: host or cells: U-937 human lymphoma cells
The test can be described thus: Assay for the COX-1 inhibitory activity using U-937 (PGE2 inhibition). The note with it: 1 μM test compound; U-937 human lymphoma cells; PGE2 after arachidonic acid; read-out: Cyclooxygenase (COX) Inhibition (%) COX-1 (1 μM). The class given is cell-based. On the procedure: The collected cells were diluted with HBSS (×1, Hank's balanced salt solution) to a concentration of 1×10^6 cells/ml. 1 ml of the dilute cell solution was placed into each well of 12-well plates. 5 μl of 1 μM solution of a test compound in DMSO and 5 μl of DMSO as a control were added to the wells. The wells were incubated in CO2 incubator at 37° C. for 15 minutes. Separately, 10 mM stock solution of arachidonic acid in ethanol was diluted ten times in ethanol to prepare 1 mM solution of arachidonic acid. Arachidonic acid acts as a substrate. 10 μl of the 1 mM solution of arachidonic acid was added to each well and incubated at CO2 incubator at 37° C. for 30 minutes. The cell solution of each well was placed in a centrifuge test tube and centrifuged at 10,000 rpm at 4° C. for 5 minutes. The concentration of PGE2 in the collected cells and the supernatant was quantified by means of a monoclonal kit (Cayman Chemicals). The percentages of PGE2 inhibition in a group of the test compound-treated cells in relation to a group of the DMSO-treated cells were calculated. Based on the calculated values, the COX-1 inhibitory activities were evaluated.
(§1) The percentages of the COX inhibition were calculated according to the following equation:
(§2) % Inhibition=(concentration of PGE2 in test compound-untreated sample−concentration of PGE2 in test compound-treated sample)/(concentration of PGE2 in test compound-untreated sample)×100

Test [2] has as its target T2, COX-2 (Mus musculus, UniProt Q05769).
T2 construct: host or cells: RAW 264.7 cells, pre-treated with aspirin, then induced with interferon and LPS
T2 sequence (Q05769 18-604): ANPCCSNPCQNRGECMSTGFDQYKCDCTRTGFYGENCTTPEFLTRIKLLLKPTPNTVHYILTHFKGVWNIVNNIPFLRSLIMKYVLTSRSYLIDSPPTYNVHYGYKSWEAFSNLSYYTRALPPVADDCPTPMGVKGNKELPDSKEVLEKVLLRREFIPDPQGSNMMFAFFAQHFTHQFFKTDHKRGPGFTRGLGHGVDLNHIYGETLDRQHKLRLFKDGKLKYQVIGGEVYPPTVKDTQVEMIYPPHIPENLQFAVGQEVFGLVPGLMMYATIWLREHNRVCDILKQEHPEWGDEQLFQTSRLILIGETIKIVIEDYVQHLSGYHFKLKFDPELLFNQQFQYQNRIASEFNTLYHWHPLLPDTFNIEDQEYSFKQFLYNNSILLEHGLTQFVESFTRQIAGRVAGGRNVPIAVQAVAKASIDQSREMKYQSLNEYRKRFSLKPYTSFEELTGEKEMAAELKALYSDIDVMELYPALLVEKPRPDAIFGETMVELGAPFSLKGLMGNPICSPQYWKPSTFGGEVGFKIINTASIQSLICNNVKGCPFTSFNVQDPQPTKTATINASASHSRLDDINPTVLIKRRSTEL
The test can be described thus: Assay for the COX-2 inhibitory activity using RAW 264.7 cell line (PGE2 inhibition). It is filed as cell-based. The note with it: for COX-2 inhibitory activity compared with the reference: 10 nM, RAW 264.7, comparison with Valdecoxib; for inhibition (%) ratio of COX-2 to COX-1 compared with the reference Valdecoxib: COX-2 at 10 nM (RAW 264.7) versus COX-1 at 1 μM (U-937); for inhibition at 0.01 µM: RAW264.7, 10 nM test compound, RAW 264.7 cells, interferon and LPS, 18 hours, PGE2 by EIA, read-out: Cyclooxygenase (COX) Inhibition (%) COX-2 (10 nM). On the procedure:
Each well was treated with 250 μM of aspirin and incubated at 37° C. for 2 hours. After the culture media were replaced with new culture media, the new culture media were treated with a test compound (10 nM) and incubated for 30 minutes. Then, each well was treated with interferon ? (100 units/ml) and lipopolysaccharide (LPS, 100 ng/ml) and incubated for 18 hours. The culture media were transferred to another test tubes. The concentration of PGE2 was quantified by means of the EIA kit (Cayman Chemicals):
as §1, §2

T1 sequence (P23219 24-599): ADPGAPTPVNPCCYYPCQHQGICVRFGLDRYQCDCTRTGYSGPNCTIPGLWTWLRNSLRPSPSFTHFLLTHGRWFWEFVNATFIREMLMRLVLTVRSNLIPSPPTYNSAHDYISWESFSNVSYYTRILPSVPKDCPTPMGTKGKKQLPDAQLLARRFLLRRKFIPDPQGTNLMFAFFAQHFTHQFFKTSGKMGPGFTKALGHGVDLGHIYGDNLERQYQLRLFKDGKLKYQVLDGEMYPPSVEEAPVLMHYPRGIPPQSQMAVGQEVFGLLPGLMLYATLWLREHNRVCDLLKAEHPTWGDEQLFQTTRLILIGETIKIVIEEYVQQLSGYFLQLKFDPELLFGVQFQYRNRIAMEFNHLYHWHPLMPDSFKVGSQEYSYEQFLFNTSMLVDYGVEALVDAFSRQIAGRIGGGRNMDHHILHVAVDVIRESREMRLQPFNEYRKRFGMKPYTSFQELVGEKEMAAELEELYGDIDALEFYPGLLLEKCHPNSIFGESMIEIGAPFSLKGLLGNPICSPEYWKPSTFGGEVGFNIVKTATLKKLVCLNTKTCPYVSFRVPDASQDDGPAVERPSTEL

Take `Cc1ccc(N2C(=O)CSC2c2ccc(S(C)(=O)=O)cc2)cc1F` (stereo not drawn) [Example 2, 3-(3-fluoro-4-methylphenyl)-2-(4-methanesulfonylphenyl)thiazolidine-4-one]: in test [1], the inhibition at 1 µM came out at 29.2%. In test [2], the “COX-2 inhibitory activity compared with the reference” value is “significantly higher than the reference”, the “inhibition (%) ratio of COX-2 to COX-1 compared with the reference Valdecoxib” value (“inhibition (%) ratio” for short) is reported as “significantly higher than that in the reference” and the inhibition at 0.01 µM is 16%.
Turning to `CS(=O)(=O)c1ccc(C2SCC(=O)N2c2ccccc2)cc1` (stereo not drawn) [Example 4, 2-(4-methanesulfonylphenyl)-3-phenylthiazolidine-4-one], the inhibition at 1 µM in test [1] amounted to 26%. Besides, in test [2], the “COX-2 inhibitory activity compared with the reference” value is listed as “significantly higher than the reference”, the “inhibition (%) ratio” value is given as “significantly higher than that in the reference” and the inhibition at 0.01 µM turned out to be 16%.
Consider `CS(=O)(=O)c1ccc(C2SCC(=O)N2c2ccc(C#N)cc2)cc1` (stereo not drawn) [Example 5, 3-(4-cyanophenyl)-2-(4-methanesulfonylphenyl)thiazolidine-4-one], for which the inhibition at 1 µM in test [1] amounted to 10.1%. Besides, in test [2], the “inhibition (%) ratio” value is “significantly higher than that in the reference” and the inhibition at 0.01 µM was determined as 6.54%.
For the compound `CS(=O)(=O)c1ccc(C2SCC(=O)N2c2cc(F)cc(F)c2)cc1` (stereo not drawn) [Example 6, 3-(3,5-difluorophenyl)-2-(4-methanesulfonylphenyl)thiazolidine-4-one], the inhibition at 1 µM in test [1] came out at 38%. Also, in test [2], the “COX-2 inhibitory activity compared with the reference” value is “significantly higher than the reference”, the “inhibition (%) ratio” value was “significantly higher than that in the reference” and the inhibition at 0.01 µM is 12.1%.

Broadly, the inhibition is the percentage by which the read-out fell short of the control.
